Laboratory results from US20170173002A1, “Compositions and Methods for Treating an Infection” (CMPD LICENSING, LLC, priority 2015, published 2017).

Columns and labels:
Cryptococcus neoformans = test: Expected efficacy of antifungal agents; conditions: expected efficacy against Cryptococcus neoformans
Candida species = test: Expected efficacy of antifungal agents; conditions: expected efficacy against Candida species
Blastomyces dermatitidis = test: Expected efficacy of antifungal agents; conditions: expected efficacy against Blastomyces dermatitidis
Sporothrix schenckii = test: Expected efficacy of antifungal agents; conditions: expected efficacy against Sporothrix schenckii
Aspergillus flavus = test: Expected efficacy of antifungal agents; conditions: expected efficacy against Aspergillus flavus
[1] = tested on: Paracoccidioides brasiliensis; test: Expected efficacy of antifungal agents; conditions: expected efficacy against Paracoccidioides brasiliensis
Trichophyton rubrum = test: Expected efficacy of antifungal agents; conditions: expected efficacy against Trichophyton rubrum
Aspergillus fumigatus = test: Expected efficacy of antifungal agents; conditions: expected efficacy against Aspergillus fumigatus
Histoplasma duboisii = conditions: expected efficacy against Histoplasma duboisii
Coccidioides immitis = conditions: expected efficacy against Coccidioides immitis
[2] = tested on: Trichophyton mentagrophytes; test: Expected efficacy of antifungal agents; conditions: expected efficacy against Trichophyton mentagrophytes

Measured: Efficacy

CCC(C)n1ncn(-c2ccc(N3CCN(c4ccc(OC[C@H]5CO[C@](Cn6cncn6)(c6ccc(Cl)cc6Cl)O5)cc4)CC3)cc2)c1=O (mixture of isomers) [Itraconazole]
yes: all assays above
